Experimental data reported in patent US9868773B2, “Peptide for treatment of type 2 diabetes mellitus and its complications” (DAPHOT ENTERPRISES LIMITED, priority 2014, dated 2018).
“Also recorded” adds a separate entry of the source. Marks after values point to notes of the source that are not given here.

Experiments:
[1] = test system: chemical experimental diabetes induced by a single injection of Streptozocin (STZ) and nicotinamide to male rats; assay: Determination of glucose in peripheral blood of rats with STZ/nicotinamide-induced experimental diabetes; format: in vivo, rat; conditions: fasted STZ/nicotinamide rats; daily for 80 days; Byetta and exenatide 4.5 ppb, D-peptide 6.0 ppb subcutaneously, Metformin 85.7 ppm intragastrically; vs control group
Method: (§1) In accordance with the experiment schedule, animals underwent induction of experimental diabetes mellitus using single injection of Streptozotocin (STZ) abdominally in the dose of 65 ppm previously diluted in citrate buffer (pH=6.5) on the day 0. All animals were injected abdominally with nicotinomide in the dose of 230 ppm (5% solution) 2 hours before it.
Glucose level measurement in peripheral blood of rats was conducted using the glucose meter OneTouch® and dipsticks OneTouch® by the glucose oxidase test. Rats were deprived of feed, but not water for a night before glucose level measurement. The measurement process was as follows: an animal with a required mark was removed from the cage, its tail was treated with bactericidal agent, a vein was punctured using a syringe needle, and the glucose meter with a dipstick was brought in place when a blood drop was effused. Obtained data was entered into the initial card.

[2] = test system: chemical experimental diabetes induced by a single injection of Streptozocin (STZ) and nicotinamide to male rats; assay: Determination of glycosylated hemoglobin (HbA1c) in blood of diabetic rats; format: in vivo, rat; conditions: for Glycosylated hemoglobin, %: M ± m, 81st day of daily injection, Byetta and exenatide 4.5 ppb, D-peptide 6.0 ppb s.c., Metformin 85.7 ppm i.g., intact 4.2, control 15.6; for reduction of HbA1c concentration, therapy effect in intergroup comparison: vs control group, after 80-day therapy
Method: as §1
A sample of venous blood was taken to determine the glycosylated hemoglobin level of animals on the day of euthanasia. The following organs were also taken for pathomorphological study: sciatic nerve, part of mesentery artery, part of retina artery, part of gastrocnemius muscle and pancreatic gland.
Determination of glycosylated hemoglobin in venous blood was conducted using the kit of reagents “Diabetes Test, HbA1c” (“Phosphosorb” LLC, Russia) by the method of affinity chromatography of glycosylated and non-glycosylated hemoglobin fractions in rat blood hemolysate.
Blood samples for determination of glycosylated hemoglobin in hemolysate of animal red blood cells were taken from the tail vein of experimental animals on the 81st day of daily injection of test products.

[3] = test system: rats with diabetic neuropathy; assay: Assessment of tactile allodynia (von Frey hairs) on rats with diabetic neuropathy; format: in vivo, rat; conditions: for effect on tactile allodynia manifestation in diabetic neuropathy: 60th-80th day of injection, vs control group; for mean value of paw withdrawal threshold, 60th day of products injection: Byetta and exenatide 4.5 ppb, D-peptide 6.0 ppb s.c., Metformin 85.7 ppm i.g. daily, control 2.77, intact 27.74; for mean value of paw withdrawal threshold, 70th day of products injection / mean value of paw withdrawal threshold, 80th day of products injection: same doses; for mean value of paw withdrawal threshold, 70th day of products injection: control 3.10, intact 26.94; for mean value of paw withdrawal threshold, 80th day of products injection: control 3.46, intact 27.74
Method: as §1
A rat was put into a plastic cage with a grating floor made of metal wire and left in this cage for 5 minutes to extinguish orientation response.
Threshold of each rat was initially determined on the left paw, and then on the right paw. A hair end touched the middle of the plantar surface on the paw with the force required for hair bending, and it was left in this position for 6-8 seconds. Positive response was recorded if the animal withdrew its paw abruptly during touching, or removal of a hair was followed by sharp paw bending.
Testing was started from application of a hair corresponding to the force of 3.630 g. Then stimuli (hairs) were used in the increasing and decreasing sequence. The hair with the least coarseness was used in case of positive response, while the hair with the largest coarseness was used in case of negative response. 4 more hairs were used according to the same principle after initial determination of sensitivity threshold.
Psychophysiological mean effective threshold of tactile responsiveness was calculated by the method described by Dixon.

[4] = test system: sciatic nerve tissue; assay: Condition assessment of sciatic nerve tissue of diabetic rats (histology, morphometry); format: in vivo, rat; conditions: for pathomorphological condition of sciatic nerve tissue: histology after 80-day injection; for Nerve stem thickness, μm / Endoneurium connective tissue area, μm^2: sciatic nerve after 80-day injection; for Nerve stem thickness, μm: intact 340.5, control 203.3; for Endoneurium connective tissue area, μm^2: intact 2,596.3, control 3,962.5
From the text: (§2) Nuclei were counterstained with hemalum.
(§3) 4.8. and image editor PhotoM 1.21.

[5] = test system: gastrocnemius muscle; assay: Condition assessment of muscle tissue (gastrocnemius muscle) of diabetic rats; format: in vivo, rat; conditions: for Cross section area of fibers, μm^2: gastrocnemius muscle, M ± m, after 80-day injection, intact 1,450, control 551.1; for pathomorphological condition of gastrocnemius muscle tissue: histology after 80-day injection
From the text: as §2, §3

[6] = test system: pancreatic gland insular apparatus; assay: Pancreatic gland insular apparatus of diabetic rats (islet area morphometry); format: in vivo, rat; conditions: after 80-day injection; intact 0.066, control 0.012
Method: as §2, §3
1. pancreatic gland insular apparatus where measurement of islets area was performed;

[7] = test system: mesenteric artery intima of rats; conditions: after 80-day injection; vs control group (FIG. 3)
From the text: as §2, §3

[8] = test system: rats with alcohol neuropathy; conditions: D-peptide 10 ppb, 100th day of daily injection; vs control group, p<0.05; 30% alcohol forced drinking
Method: Tactile allodynia was assessed prior to modeling of alcohol neuropathy on the 1st day of product injection, and on the 50th and 100th day of daily injection. Data are given as a mean threshold value of paw withdrawal (g) (M±m).
The allodynia test was performed on the 60th, 70th and 80th days of injection of medicinal products during experiment. In case of alcohol neuropathy, the tactile responsiveness test was performed on the 1st, 50th and 100th day of injection of medicinal products.
Assessment of tactile allodynia was performed in the same way as in the example 7.

| Molecule | antihyperglycemic effect (glucose level in peripheral blood) [1] | Glycosylated hemoglobin, % [2] | reduction of HbA1c concentration, therapy effect in intergroup comparison [2] | effect on tactile allodynia manifestation in diabetic neuropathy [3] | mean value of paw withdrawal threshold, 60th day of products injection ([3]; M ± m) | mean value of paw withdrawal threshold, 70th day of products injection ([3]; M ± m) | mean value of paw withdrawal threshold, 80th day of products injection ([3]; M ± m) | mean value of paw withdrawal threshold, Baseline ([3]; M ± m, baseline, prior to injection of test products) | pathomorphological condition of sciatic nerve tissue [4] | Nerve stem thickness, μm [4] | Endoneurium connective tissue area, μm^2 [4] | Cross section area of fibers, μm^2 [5] | pathomorphological condition of gastrocnemius muscle tissue [5] | Area of pancreatic gland islets, mm² [6] | mesenteric artery intima thickness, effect [7] | effect on tactile allodynia in alcohol neuropathy [8] |
| --- | --- | --- | --- | --- | --- | --- | --- | --- | --- | --- | --- | --- | --- | --- | --- | --- |
| CN(C)C(=N)N=C(N)N [Metformin] | showed antihyperglycemic properties starting from the 20th day of therapy | 5.7 ± 0.25 % | maximum therapy effect | decreased allodynia manifestation intensity slightly | 4.94 ± 0.90 g | 4.98 ± 0.87 g | 4.28 ± 0.45 g | 28.82 ± 0.00 g | did not have a therapeutic effect on nerve tissue; also recorded: nerve stem edema and excess increase of its thickness | 382 ± 23.4 μm | 2,826.3 ± 298.9* μm^2 | 1,286 ± 157* μm^2 | Minimum focal inflammatory infiltration of fibers and interstitial tissue | 0.034 ± 0.004 mm² |  |  |
| 14-glycine-exendin-4 (Heloderma suspectum)-(1-39)-peptidyl-octa-D-arginyl-glycine [D-peptide] | had antihyperglycemic effect during therapy with duration of 80 days starting from the 40th day of injection | 5.5 ± 0.53 % | maximum therapy effect | decreased tactile allodynia manifestations significantly | 16.15 ± 4.18 g | 13.91 ± 3.59 g | 15.05 ± 3.67 g |  | had a positive therapeutic effect | 303.6 ± 20.3 μm | 1,956.1 ± 273.4** μm^2 | 1,472 ± 282* μm^2 | had apparent therapeutic action on muscle tissue |  | Maximum effect | decrease in tactile allodynia intensity |
